Laboratory results from US9783513B2, “STAT3 inhibitors and their anticancer use” (Ohio State Innovation Foundation, priority 2012, dated 2017).
Entries after “also recorded” stand apart in the source; their conditions may differ. Where two headings read alike, the source gives them in different places.

Experiments:
[1] = test system: human sarcoma cell line RH30; experiment: Cell viability (MTT) assay, RH30; assay type: cell-based
Description: (§1) Human sarcoma cell lines (RD2, RH30, U2OS) were seeded in 96-well plates at a density of 3,000 cells per well. The cells were incubated at 37° C. for a period of 24 hours. Different concentrations of LY-5 (0.1-10 μM), LY-3 (0.1-20 μM), and LLL12 (0.1-10 μM) prepared as a 20 mM stock solution in sterile DMSO were added in triplicate to the plates in the presence of 10% FBS. 3-(4,5-Dimethylthiazolyl)-2, 5-diphenyltetrazoliumbromide (MTT) was added to evaluate cell viability. The absorbance was read at 595 nm. IC50 values were determined using SigmaPlot 9.0 Software (Systat Software, Inc., San Jose, Calif.).
(§2) Alternatively, cells were seeded in 96-well plates in triplicate at a density of 3,000 cells per well and given 24 hours to adhere. Cells were then treated with varying concentrations of the inhibitors in the presence of 10% FBS. The cells were incubated for 72 hours at 37° C. 25 μl of MTT dye (Sigma, #M5655) was added to each sample and incubated for 3.5 hours. After this, 100 μl of N,N-dimethylformamide (Sigma, #D4551) solubilization solution was added to each well. The absorbance at 450 nm was read the following day. Half-Maximal inhibitory concentrations (IC50) were determined using Sigma Plot 9.0 software (Systat Software Inc.).
(§3) Table 7 below lists specific compounds as well as experimentally determined STAT3 activity in a cell-based assay. The STAT3 activity was determined using the cell viability assays with human sarcoma cell lines (RD2, RH30, U2OS) as described above. The compound reference numbers (“Ref. No.”) in Table 7 correspond to the compound numbers used in Table 3.

STAT3 dimerization = biological target: T1, STAT3 dimerization (Homo sapiens, UniProt P40763); experiment: STAT3 dimerization in transfected HeLa cells; assay type: cell-based; settings: flag- and HA-tagged STAT3
T1 construct: expressed in transfected cells; host or cells: HeLa

[2] = test system: human sarcoma cell line RD2; experiment: Cell viability (MTT) assay, RD2; assay type: cell-based
Description: as §1, §2, §3

HUVEC = HUVEC tube formation assay; assay type: cell-based, human; settings: 300 nM
Description: The Endothelial Tube Formation Assay (CBA200, Cell Biolabs Inc., San Diego, Calif., USA) was used in addition to the HUVEC proliferation assay. The ECM gel was thawed at 4° C. and mixed to homogeneity using cooled pipette tips. Cell culture plates (96-well) were bottom-coated with a thin layer of ECM gel (50 μl/well), which was left to polymerize at 37° C. for 60 min. HUVEC (2-3×10^4 cells) were stimulated with VEGF in 150 μl medium and added to each well on the solidified ECM gel. Culture medium was added to each well in the presence or absence of LY5. The plates were incubated at 37° C. for 12-18 hours and the endothelial tubes were quantified using a fluorescent microscope after staining with Calcein AM. Three microscope fields were selected at random and photographed. Tube forming ability was quantified by counting the total number of cell clusters and branches under a 4× objective and […] per well. The results are expressed as mean fold change of branching compared with the control groups. Each experiment was performed at least three times. The 3D in vitro angiogenesis assay was performed essentially as described by manufactures instructions (promo cell). […] The spheroids were photographed after 24 hours and sprout formation assessed as described.

[3] = test system: MDA-MB-231 human breast cancer cells xenograft; experiment: Mouse model of xenograft tumor development; assay type: in vivo; settings: for tumor growth (tumor volume) / STAT3 phosphorylation in tumor tissue: 21 days; for tumor growth (tumor volume): p<0.001; for STAT3 phosphorylation in tumor tissue: Western blot
Description: MDA-MB-231 human breast cancer cells (5×10^6) were injected subcutaneously into the flank area of 6-week-old female athymic nude mice which were purchased from Harlan (Indianapolis, Ind., USA). There were two injection sites per animal, thus each animal provided two tumors for analysis. After tumor development, mice were divided into two treatment groups consisting of eight tumors per group (4 animals/group). The vehicle was as follows: 10% DMSO, 18% Cremophor EL, and 72% sterile 5% Dextrose solution. The same vehicle was used for oral administration (via oral gavage) or intraperitoneal (“IP”) injection. The test compound was LY-5 was at 2.5 mg/ml in the vehicle, and 100 μL was administered daily to each animal (total dose: 5 mg/kg). For both oral and IP administration, LY-5 was administered for 21 days. Tumor growth was determined by measuring length (L) and width (W) of the tumor every other day with a caliper. The tumor volume was calculated according to the formula: Tumor volume=0.5236×L×W^2.
Statistical analysis for mouse xenograft tumor data was performed by fitting a mixed model to conduct the repeated measures analysis. The repeated measures in the model were the log transformed growing rates (log 10(tumor size/day one tumor size)) measured in different days (1,3, etc. as indicated). The purpose of the model was to test whether the interaction effect between measurement time and treatment group was significant. The interaction item can be interpreted as “the difference of growing rate among the groups.” Probability (p) values less than 0.05 were considered statistically significant.

T1 sequence (P40763 whole entry): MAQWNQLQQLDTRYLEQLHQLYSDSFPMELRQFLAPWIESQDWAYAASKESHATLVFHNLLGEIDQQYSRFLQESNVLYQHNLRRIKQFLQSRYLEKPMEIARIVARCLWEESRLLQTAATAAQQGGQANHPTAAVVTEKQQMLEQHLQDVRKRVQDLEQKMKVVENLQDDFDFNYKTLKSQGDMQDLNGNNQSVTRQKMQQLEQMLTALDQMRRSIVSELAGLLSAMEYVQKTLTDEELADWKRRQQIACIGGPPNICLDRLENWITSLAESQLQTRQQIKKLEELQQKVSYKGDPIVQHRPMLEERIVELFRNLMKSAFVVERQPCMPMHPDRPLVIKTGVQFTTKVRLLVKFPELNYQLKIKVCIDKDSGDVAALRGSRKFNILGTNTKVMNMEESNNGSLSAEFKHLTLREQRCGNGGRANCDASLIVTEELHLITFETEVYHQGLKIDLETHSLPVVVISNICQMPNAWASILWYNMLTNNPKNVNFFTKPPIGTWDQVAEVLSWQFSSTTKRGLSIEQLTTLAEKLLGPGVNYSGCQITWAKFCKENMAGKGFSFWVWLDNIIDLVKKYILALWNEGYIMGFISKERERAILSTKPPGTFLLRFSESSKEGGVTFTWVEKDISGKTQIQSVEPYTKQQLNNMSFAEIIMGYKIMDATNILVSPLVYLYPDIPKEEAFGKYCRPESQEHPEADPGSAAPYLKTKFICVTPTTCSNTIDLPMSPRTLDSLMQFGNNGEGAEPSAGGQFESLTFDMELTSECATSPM

## NS(=O)(=O)c1cccc2c1C(=O)C=C(Nc1cccnc1)C2=O [LY-5, 5,8-dioxo-6-(pyridin-3-ylamino)-5,8-dihydronaphthalene-1-sulfonamide]
[1]; Table 7, read-out: IC50 RH30
  IC50: 550 nM
[1]; Table 8, read-out: IC50 values vs. cell lines, RH30
  IC50: 550 nM
STAT3 dimerization
  STAT3 dimerization: inhibits
[2]; Table 7, read-out: IC50 RD2
  IC50: 1390 nM
[2]; Table 8, read-out: IC50 values vs. cell lines, RD2
  IC50: 1390 nM
HUVEC
  VEGF induced HUVEC tube formation: inhibits
[3]; human breast cancer tumor xenograft
  vessel number in tumor tissue (anti-CD34 staining): reduced the vessel number
[3]; intraperitoneal injection, 5 mg/kg daily, 5 mg/kg
  tumor growth (tumor volume): significantly suppresses; also recorded: decrease in tumor growth
[3]; oral gavage, 5 mg/kg daily, 5 mg/kg
  tumor growth (tumor volume): strongly suppressed tumor growth
[3]; oral gavage, 5 mg/kg daily, listed as LY5, 5 mg/kg
  tumor growth (tumor volume): significantly decreased; also recorded: decreased tumor growth
[3]; oral, 5 mg/kg daily
  body weight and visible signs of toxicity: No obvious change in body weight or visible signs of toxicity
[3]; oral, 5 mg/kg
  STAT3 phosphorylation in tumor tissue: no apparent phosphorylated STAT3
[3]; oral, 5 mg/kg, listed as LY5, 5 mg/kg
  STAT3 phosphorylation in tumor tissue: noticeably lower than vehicle group; also recorded: decrease in STAT3 phosphorylation
